We go through 16 molecules from ChEMBL document CHEMBL1137066, “Tryptamine-based human beta3-adrenergic receptor agonists. Part 2: SAR of the methylene derivatives” (Bioorg Med Chem Lett, 2004).

The target in test [1] is T1, Beta-1 adrenergic receptor (Homo sapiens, UniProt P08588). In words: Agonistic activity at human Beta-1 adrenergic receptor at 1000 nM concentration. In kind it is functional.
Target sequence in this assay (P08588 whole entry, looked up): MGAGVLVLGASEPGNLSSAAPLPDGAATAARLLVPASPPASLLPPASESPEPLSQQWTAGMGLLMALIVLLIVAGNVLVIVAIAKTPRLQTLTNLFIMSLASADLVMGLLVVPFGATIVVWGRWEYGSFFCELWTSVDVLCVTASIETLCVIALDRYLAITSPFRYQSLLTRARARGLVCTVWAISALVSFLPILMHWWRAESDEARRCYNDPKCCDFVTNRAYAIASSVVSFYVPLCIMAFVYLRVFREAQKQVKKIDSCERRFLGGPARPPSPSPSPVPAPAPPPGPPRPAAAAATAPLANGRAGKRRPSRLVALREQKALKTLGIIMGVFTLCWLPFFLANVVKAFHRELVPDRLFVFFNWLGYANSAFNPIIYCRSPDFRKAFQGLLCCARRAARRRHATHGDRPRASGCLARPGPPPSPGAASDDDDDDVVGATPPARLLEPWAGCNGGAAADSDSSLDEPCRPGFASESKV
Test [2] addresses T2, Beta-2 adrenergic receptor (Homo sapiens, UniProt P07550). In words: (§1) Agonistic activity at human Beta-2 adrenergic receptor at 1000 nM concentration. In kind it is functional.
Target sequence in this assay (P07550 whole entry, looked up): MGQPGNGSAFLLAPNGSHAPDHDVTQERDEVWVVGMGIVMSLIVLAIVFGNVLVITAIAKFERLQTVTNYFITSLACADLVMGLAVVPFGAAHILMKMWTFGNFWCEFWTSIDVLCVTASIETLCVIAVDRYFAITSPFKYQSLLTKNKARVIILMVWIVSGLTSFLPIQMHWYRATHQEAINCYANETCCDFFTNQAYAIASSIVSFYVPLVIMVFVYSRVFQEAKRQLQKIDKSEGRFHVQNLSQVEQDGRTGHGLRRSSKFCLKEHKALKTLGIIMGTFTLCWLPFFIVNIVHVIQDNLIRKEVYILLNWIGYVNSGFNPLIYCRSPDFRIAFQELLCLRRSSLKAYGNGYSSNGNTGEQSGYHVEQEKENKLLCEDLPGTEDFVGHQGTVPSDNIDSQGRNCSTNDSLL
Test [3] addresses T3, Beta-3 adrenergic receptor (Homo sapiens, UniProt P13945). Briefly: Agonistic activity was determined by measuring cAMP accumulation in CHO cells expressing cloned human Beta-3 adrenergic receptor. In kind it is functional, cell-based. A general note: cAMP levels reflect the balance of adenylyl cyclase and phosphodiesterase activity.
Target sequence in this assay (P13945 whole entry): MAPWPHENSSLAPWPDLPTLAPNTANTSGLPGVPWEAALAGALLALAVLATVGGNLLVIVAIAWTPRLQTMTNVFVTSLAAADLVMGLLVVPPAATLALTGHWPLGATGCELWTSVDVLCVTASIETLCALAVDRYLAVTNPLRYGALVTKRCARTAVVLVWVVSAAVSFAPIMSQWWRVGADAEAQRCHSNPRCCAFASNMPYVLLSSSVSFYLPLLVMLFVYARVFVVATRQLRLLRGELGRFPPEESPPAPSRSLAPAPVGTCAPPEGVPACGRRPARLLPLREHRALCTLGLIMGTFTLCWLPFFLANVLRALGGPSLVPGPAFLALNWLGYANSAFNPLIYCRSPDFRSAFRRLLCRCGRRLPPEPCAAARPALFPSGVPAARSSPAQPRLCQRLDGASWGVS
Test [4] has as its target T3, Beta-3 adrenergic receptor. In words: Intrinsic activity expressed as percentage of maximal stimulation with isoproterenol of Beta-3 adrenergic receptor. In kind it is functional.
Target sequence in this assay (P13945 whole entry, looked up): as the sequence (P13945 whole entry) above
Test [5] deals with T2, Beta-2 adrenergic receptor. In words: Binding inhibition constant was determined by inhibition of [125I]iodocyanopindolol binding to Beta-2 adrenergic receptor.
Target sequence in this assay (P07550 whole entry): as the sequence (P07550 whole entry, looked up) above
Test [6] addresses T3, Beta-3 adrenergic receptor. Briefly: Binding inhibition constant was determined by inhibition of [125I]iodocyanopindolol binding to Beta-3 adrenergic receptor.
Target sequence in this assay (P13945 whole entry): as the sequence (P13945 whole entry) above
The target of test [7] is T1, Beta-1 adrenergic receptor. Briefly: Binding inhibition constant was determined by inhibition of [125I]-iodocyanopindolol binding to Beta-1 adrenergic receptor.
Target sequence in this assay (P08588 whole entry): as the sequence (P08588 whole entry, looked up) above
Test [8] addresses T1, Beta-1 adrenergic receptor. Briefly: Agonistic activity was determined by measuring cAMP accumulation in CHO cells expressing cloned human Beta-1 adrenergic receptor. Type of test: functional, cell-based.
Target sequence in this assay (P08588 whole entry): as the sequence (P08588 whole entry, looked up) above
The target of test [9] is T2, Beta-2 adrenergic receptor. In words: Agonistic activity was determined by measuring cAMP accumulation in CHO cells expressing cloned human Beta-2 adrenergic receptor. Type of test: functional, cell-based.
Target sequence in this assay (P07550 whole entry): as the sequence (P07550 whole entry, looked up) above
The target in test [10] is T1, Beta-1 adrenergic receptor. In words: Intrinsic activity expressed as percentage of maximal stimulation with isoproterenol of Beta-1 adrenergic receptor. Type of test: functional.
Target sequence in this assay (P08588 whole entry, looked up): as the sequence (P08588 whole entry, looked up) above
Test [11] concerns the target T3, Beta-3 adrenergic receptor. The test is described as §1. In kind it is functional.
Target sequence in this assay (P13945 whole entry, looked up): as the sequence (P13945 whole entry) above
Test [12] addresses T2, Beta-2 adrenergic receptor. In words: Intrinsic activity determined by measuring cAMP accumulation in CHO cells expressing cloned human Beta-2 adrenergic receptor and activity expressed as percentage of maximal stimulation with isoproterenol. In kind it is functional, cell-based.
Target sequence in this assay (P07550 whole entry, looked up): as the sequence (P07550 whole entry, looked up) above

A word on the EC50: it is the concentration at which the effect is half-maximal. High values mean lower potency in that assay, low ones higher potency in that assay. As a reminder, the Ki is a dissociation constant, usually derived from enzyme kinetics or from competition with a known ligand. A lower Ki goes with higher affinity.

As for `CS(=O)(=O)Oc1cccc2c(CCNC[C@H](O)c3cccc(NS(=O)(=O)c4cccs4)c3)c[nH]c12`, the results for the Activity in test [1] and in test [2] were 12% and 23%, respectively. In [3], this molecule yielded an EC50 of 1.7 nM. In test [4], this molecule returned an IA of 89%. The Ki in test [5] worked out at 223 nM; in test [6], 33 nM; in test [7], 230 nM.
Turning to `COc1cccc2c(CCNC[C@H](O)c3cccc(NS(=O)(=O)c4cccs4)c3)c[nH]c12`, the Activity came out at 6% in test [1] and 16% in test [2]. Besides, the EC50 in test [3] was determined as 13 nM. In test [4], this molecule came in with an IA of 87%.
Taken in the same sequence, the figures for `CS(=O)(=O)Oc1cccc2c(CCNC[C@H](O)c3cccc(NS(=O)(=O)CC(F)(F)F)c3)c[nH]c12` were 0%, 24%, 48 nM and 49%.
Taken in the same sequence, the figures for `CS(=O)(=O)Oc1cccc2c(CCNC[C@H](O)c3cccc(NS(=O)(=O)c4cc(Cl)c(Cl)s4)c3)c[nH]c12` were 7%, 18%, 6.7 nM and 93%.
With `C[C@H](Cc1c[nH]c2c(OS(C)(=O)=O)cccc12)NC[C@H](O)c1cccc(NS(=O)(=O)c2cccs2)c1`, the results for the EC50 in test [8], in [9] and in [3] were 44 nM, 18 nM and 0.21 nM, respectively. The results for the IA in [10] and in test [4] were 36% and 97%, respectively. Further, the Ki in test [5] worked out at 48 nM; in [6] it was 4 nM; in test [7] it was 66 nM.
Turning to `Cc1cccc2c(CCNC[C@H](O)c3cccc(NS(=O)(=O)c4cccs4)c3)c[nH]c12`, the Activity in [1] is 3%; in [2], 9%. In addition, the concentration for a half-maximal effect (EC50) in [3] is 25 nM. In test [4], this molecule gave an IA of 77%.
With `CS(=O)(=O)Oc1cccc2c(CCNC[C@H](O)c3cccc(NS(=O)(=O)c4cccc(Cl)c4)c3)c[nH]c12`, the results for the Activity in [1] and in test [12] were 11% and 13%, respectively. The same molecule came in with an IA in test [11] of 96%. Moreover, the EC50 in test [3] is 1 nM.
Regarding `CS(=O)(=O)Oc1cccc2c(CCNC[C@H](O)c3cccc(NS(=O)(=O)c4ccc(N)cc4)c3)c[nH]c12`, the Activity turned out to be 5% in test [1] and 15% in test [2]. A half-maximal effect in test [3] (EC50) was put at 8.4 nM. The same molecule yielded an IA in test [4] of 85%.
Taken in the same sequence, the figures for `CS(=O)(=O)Oc1cccc2c(CCNC[C@H](O)c3cccc(NS(=O)(=O)c4ccccc4N)c3)c[nH]c12` were 7%, 9%, 3 nM and 80%.
Taken in the same sequence, the figures for `CS(=O)(=O)Oc1cccc2c(CCNC[C@H](O)c3cccc(NS(=O)(=O)c4ccc(Br)s4)c3)c[nH]c12` were 6%, 17%, 2.8 nM and 82%.
Taken in the same sequence, the figures for `COc1cccc(S(=O)(=O)Nc2cccc([C@@H](O)CNCCc3c[nH]c4c(OS(C)(=O)=O)cccc34)c2)c1` were 11%, 10%, 0.94 nM and 97%.
Regarding `CS(=O)(=O)Oc1cccc2c(CCNC[C@H](O)c3cccc(NS(=O)(=O)c4cccc(F)c4)c3)c[nH]c12`, the Activity in test [1] was found to be 10%; in test [2], 8%. Moreover, a half-maximal effect in test [3] (EC50) was put at 2.4 nM. The IA in test [4] was 97%.
Taken in the same sequence, the figures for `O=S(=O)(Nc1cccc([C@@H](O)CNCCc2c[nH]c3c(OCc4ccccc4)cccc23)c1)c1cccs1` were 10%, 32%, 7.6 nM and 81%.
Taken in the same sequence, the figures for `O=S(=O)(Nc1cccc([C@@H](O)CNCCc2c[nH]c3ccccc23)c1)c1cccs1` were 2%, 15%, 21 nM and 73%.
Consider `CS(=O)(=O)Oc1cccc2c(CCNC[C@H](O)c3cccc(NS(=O)(=O)c4cccc(N)c4)c3)c[nH]c12`, for which the figures for the Activity in test [1] and in test [2] were 3% and 6%, respectively. For the same molecule, the EC50 in test [3] came to 0.31 nM. This molecule also came in with an IA in test [4] of 105%. Further, the values for the inhibition constant (Ki) in [5], in [6] and in [7] were 70 nM, 2.6 nM and 89 nM, respectively.
Take `CS(=O)(=O)Oc1cccc2c(CCNC[C@H](O)c3cccc(NS(=O)(=O)c4ccccc4)c3)c[nH]c12`: the Activity in test [1] is 14%; in test [2], 15%. In test [3], the response was half-maximal at 2 nM (EC50). Further, the IA in test [4] came to 86%.
